Like-named read-outs stand apart in the source and are kept apart here.
Experiments:
anaerobia = test: spontaneous anaerobic fermentation of flour paste sealed with rapeseed oil; format: cell-based; conditions: about 7 months spontaneous fermentation, air blocked with rapeseed oil; amounts added as
fly maggot eggs = test: meat slice preservative experiment
[1] = system: L-glutamate dehydrogenation; test: spontaneous fermentation of flour paste mixed with L-glutamate; format: cell-based; conditions: for level of water absorbed on dry test paper: paper inserted 30 minutes, without reducing agent 5 mm
glutamine metabolism = test: spontaneous fermentation of flour paste mixed with glutamine; format: cell-based; conditions: about 25 °C, one hour, without reducing agent 8 to 9
[2] = cited from earlier work
[3] = system: anaerobic bacteria or facultative anaerobic bacteria; format: cell-based
[4] = trials on patients with gout, urine pH; format: in vivo, human
[5] = trials on patients with gastric ulcer or gastrointestinal inflammation; format: in vivo, human; conditions: about 30 of about 80 tumor patients having gastrointestinal inflammation
[6] = spraying on brown spots on the face; format: in vivo, human; conditions: 5 ppm sodium selenite solution and randomly 3% aqueous sodium formate solution
fermenting microorganism = test: flour fermentation experiment; format: cell-based; conditions: second day of fermentation; without sodium selenite pH 4-5
Experimental: Two portions of flour (50 g each) were used for fermentation experiments. Each portion was mixed with an equal amount (about 50 g) of water, and to one of the mixtures sodium selenite having about 200 μg selenium was added. […] The same phenomenon was observed over 20 days of continuous monitoring (the contrast between flour fragrance and the acidic odor). As measured by pH test paper, the flour with sodium selenite on the second day of fermentation was slightly alkaline with a pH of 7-8, while the flour without sodium selenite was acidified after fermentation with a pH of 4-5. […] Since tumor cells and anaerobia cells have the same steps and processes of chemical reactions in glycolysis, it is believed that tumor cells would either stop metabolism and die, or change the metabolic pattern and turn into normal cells.

bacteria = test: preservative effect on lettuce leaf, loofah juice and celery leaf in water
tumors = test: administration of reducing agents in cycles to tumor patients; format: in vivo, human; conditions: advanced lung cancer, 15-month course with bevacizumab, before reducing agents
[7] = evening of same day, bare meat densely covered
[8] = next morning, maggots appeared on untreated slice
[9] = after 3 days, sodium formate 1 g 3 times per day, sodium oxalate 1 g per day

| Molecule | fly maggot eggs on the meat slice (fly maggot eggs) | level of water absorbed on dry test paper [1] | fly maggot eggs on the meat slice (fly maggot eggs; [7]) | maggots on the meat slice (fly maggot eggs; [8]) | pH value of the gas in the beaker (wet pH paper) (glutamine metabolism) | other results |
| --- | --- | --- | --- | --- | --- | --- |
| N[C@@H](CS)C(=O)O [L-cysteine] |  |  |  |  |  | aqueous solution above the settled flour (anaerobia): clear and transparent |
| O=CO [formic acid] | about 5 |  |  |  |  | maggots on the meat slice (fly maggot eggs): no maggot was hatched |
| O=C(O)C(=O)O [oxalic acid] |  | about 9 mm | about 5 | no maggot was hatched | about 7.5 | aqueous solution above the settled flour (anaerobia): clear and transparent |
| [Se] [selenium] |  |  |  |  |  | safe dose ([2]; oral intake): no more than 400 mg per day |
| O=C[O-].[Na+] [sodium formate] |  | about 9 mm | about 5 | no maggot was hatched | about 7.5 | pH of water in the glutinous rice [3]: slightly decreased from about 7; pH value of water in the glutinous rice [3]: about 6; pain feeling of gout [4, 9]: alleviated and even disappeared; urine pH, hospital urine test ([4]; patient with a tumor, 1 g per day for two weeks): 8; gastrointestinal discomfort [5]: alleviated gastrointestinal discomfort; colored spots in more than 10 people [6]: faded or disappeared colored spots |
| O=C([O-])C(=O)[O-].[Na+].[Na+] [sodium oxalate] | about 5 | about 9 mm |  |  | about 7.5 | pain feeling of gout [4, 9]: disappeared; morning urine pH by test paper ([4]; gout patients, after 3 days, sodium formate 1 g 3 times per day, sodium oxalate 1 g per day, 5.5 to 6 during onset): 7; pH of urine tested first in the morning ([4]; patients with frequent gout, 1 g per day): increased pH; maggots on the meat slice (fly maggot eggs): no maggot was hatched |
| O=[Se](O)O [sodium selenite] | 5 | 9 mm |  |  | about 7.5 | pH of flour by pH test paper (fermenting microorganism): 7-8; pH value of the gas in the beaker (wet pH paper) ([1]; one hour, without sodium selenite 8): about 7.5; diameter of brown rot spot on lettuce leaf (bacteria; fifth day, 180 μg selenium in 80 g tap water, 15 to 20 °C, without: about 6 mm): about 1 mm; diameter of spot on loofah juice (bacteria; fifth day, with sodium selenite): about 3 mm; day a spot first appeared on the surface of loofah juice (bacteria; loofah juice with sodium selenite, without: about 3 mm spot on second day): 3 days; toxic dose ([2]; human, oral administration, publicly reported): 400 mg per day |
| bevacizumab |  |  |  |  |  | CY211 index during course (tumors): up to 28 |
| calcium formate |  | about 9 mm | about 5 | no maggot was hatched | about 7.5 | effect on pH of water in the glutinous rice [3]: same effect |
| selenium dioxide |  | about 9 mm | about 5 | no maggot was hatched | about 7.5 |  |
| sodium sulfide | about 5 |  |  |  |  | maggots on the meat slice (fly maggot eggs): no maggot was hatched |
